US20230107216A1, “PANTETHEINE DERIVATIVES AND USES THEREOF” (Comet Therapeutics, Inc., priority 2018, published 2023)
Read-outs that look alike come from different tables or passages of the source.

Key:
[1] = test system: Subnormal activation of pyruvate dehydrogenase complex (PDH) primary fibroblasts GM01503 (GM1503A); test: Total NAD+ + NADH and NAD+ (NAD/NADH-Glo), PDH fibroblasts GM01503; format: cell-based; settings: Homo sapiens, Fibroblast, 24h, read-out: Increase in Total NAD+ + NADH
Procedure: Primary adherent fibroblasts were cultured in minimum essential medium (MEM) (Gibco, 25030081) supplemented with 2 mM L-Glutamine (Gibco, 25030081), 15% fetal bovine serum (FBS) (Gibco, 26400044) and 1% penicillin/streptomycin (Gibco, 5140122) at 37° C. and 5% CO2. Cells were collected for either passaging or experiment at ˜70-80% confluence. Cells were obtained by trypsinization and seeded in cell culture microplates either white plate (Thermo Fisher Scientific, 152028) for luminescent measurement or black plate (Thermo Fisher Scientific, 165305) for fluorescent based read out for different assays listed below. Cells were obtained by trypsinization and […] were seeded and allowed to adhere for 16-18 hours to have confluency around 70-80% in the cell well with culture media. After 24 hours prior to measurements (37° C., 5% CO2) media was changed to Dulbecco's Modified Eagle Medium (DMEM, Agilent Seahorse cat #103575-100) with the appropriate supplements as stated below.
Primary fibroblasts assayed were Propionic Acidemia (PA) (GM03590 Coriell Institute for Medical Research, Tsi 6337 Trans-Hit Bio), Methylmalonic Acidemia (MMA) (Tsi 5224 Trans-Hit Bio), Subnormal activation of pyruvate dehydrogenase complex (PDH) (GM01503 Coriell Institute for Medical Research), Very long-chain acyl-CoA dehydrogenase (VLCAD) (GM17475), Leigh Syndrome (LS) (GM03672, GM13411 Coriell Institute for Medical Research), Pyruvate Carboxylase Deficiency (PC) (GM00444 Coriell Institute for Medical Research). 10 μM of Compounds were added for 2 hours in PA, MMA lines and for 24h for the other fibroblast lines.
Assay was performed according to manufacturer instructions (NAD/NADH-Glo Assay Promega, G9072). The NAD/NADH-Glo Assay is a bioluminescent assay for detecting total oxidized and reduced nicotinamide adenine dinucleotides (NAD+ and NADH, respectively) from which ratio of NAD/NADH can be calculated. Briefly, for every assay a 12-point standard curve was prepared ranging from 400 nM to 0.625 nM. Media was removed and replaced with 50 μl of PBS for both assays.
For individual NAD+ and NADH measurement, 50 μl of 1% DTAB (Sigma Cat #D5047) (cell lysis reagent) in 0.2N NaOH was added to the plate and a total 100 μl of lysate was split into two plates with 50 μl each. 25 μl of 0.4N HCl were added to the NAD+ plate and both NAD+ and NADH plate were heated at 60° C. for 15 minutes. The acid and heat treatment destroyed NADH allowing individual NAD+ measurement while heating in basic conditions destroys NAD+ allowed individual NADH measurements. The plates were allowed to come to room temperature for 10 minutes and Trizma base (Sigma, T1699) was added to the NAD+ plate to neutralize the acid and HCl Trizma hydrochloride (Sigma, T2694) was added to the NADH plate. The NADNADH glo reagent was prepared by adding: 625 μl of NAD cycling substrate, 125 μl of reductase, 125 μl of reductase substrate, 125 μl NAD cycling enzyme to total of the 25 ml of NAD GLO reagent. 1:1 ratio of total volume of reagent was added to the individual NAD+, NADH measurement (total 100 μl) and 50 μl for total NAD/NAH measurement. Luminescence was read between 30-60 minutes within the linear range.
A total dead cell count was performed as described in Example 817 and only alive cells were used for analysis.

[2] = test system: Bronchial epithelial cells (BE3C system); test: BioMAP BE3C system (IL-1β, TNFα, IFNγ); format: cell-based, human; settings: procedure of Example 831
[3] = test system: Coronary artery smooth muscle cells (CASM3C system); test: BioMAP CASM3C system (IL-1β, TNFα, IFNγ); format: cell-based, human
[4] = test system: tyrosine hydroxylase positive mesencephalic neurons injured by 6-OHDA; test: Neuroprotective effect on damage induced by 6-OHDA on culture of mesencephalic neurons; format: cell-based; settings: Rattus norvegicus, Neuron, 6-OHDA 15 μM, 48h, read-out: % reversion of TH positive neurons (6-OHDA-mediated degradation of dopaminergic neurons)
Procedure: The protective effect of compounds of the present disclosure was determined on 6-OHDA-mediated injury on mesencephalon neuronal cultures.
A female Wistar rat (Janvier; France) of 15 days gestation was terminated by cervical dislocation, the fetuses were removed from the uterus and their brains were harvested and placed in ice-cold medium (Leibovitz's L15 medium, Gibco). Only ventral mesencephalic flexure was used for the cell preparations. The midbrain was dissociated by trypsinization. The reaction was stopped, and the suspension was triturated and centrifuged. The pellet of dissociated cells was resuspended in chemically defined medium consisted of Neurobasal (Gibco, 21103049), containing B27 supplement (Gibco, A3582801) and L-glutamine (Gibco, 25030081), 10 ng/ml (BDNF; Pepro Tech, France, 450-02) and 1 ng/ml (GDNF; Pepro Tech, 450-51).
Viable primary rat embryo mesencephalic cells were counted and seeded on 96-multi-wells plate precoated with poly-L-lysine. Cells were maintained in a humidified incubator at 37° C. in 5% CO2-95% air atmosphere and medium changed on day 2. On day 6, the culture medium was removed and replaced by new media without neurotrophic factors containing the compounds of the present disclosure (50-10 μM) or vehicle (0.1% DMSO). After 1h exposure, injury of mesencephalon neuronal cultures was induced by 6-OHDA (15 μM) for further 48h. A mixture of the growth factors GDNF (1 ng/ml) and BDNF (10 ng/ml) were used as reference compound. On day 8, the tyrosine hydroxylase positive neurons were evaluated. Cultures were fixed 30 min at 4° C. with paraformaldehyde in PBS (4%, Sigma). After, cells were permeabilized with 0.1% Triton X100 for 30 min, saturated with PBS containing 3% of BSA (bovine serum albumin) and incubated 2h with anti-tyrosine hydroxylase antibody (Sigma, 1:10000; clone TH-2) at 1/10000 in PBS containing 0.5% of BSA. Cells were washed three times with PBS containing 0.5% of BSA and incubated 1h with goat anti mouse antibody coupled with AF488 (Invitrogen A11001) diluted at 1/1000 in PBS containing 0.5% of BSA. Finally, nuclei were stained with DAPI (Thermo fisher, D1306) at 1/1000 in PBS containing 0.5% of BSA. After rinsing with PBS, the plate was visualized and examined with Cell Insight HCS (Thermo Scientific) to determine the number of tyrosine hydroxylase positive cells per well.
The results for each well were expressed as a percentage by setting the density of tyrosine hydroxylase positive cells under control conditions to 100%. Then the result for each condition was reported as mean±SEM from 4 independent cultures.
A global analysis of the data was performed using a one-way analysis of variance (ANOVA), followed by Fisher's Protected Least Significant Difference when applicable. The level of significance was set to p<0.05.

[5] = PDH GM1503A P10, assay condition A
[6] = PDH GM1503A P10, assay condition B

CC(O)C(C(=O)SCCNC(=O)CCNC(=O)[C@H](O)C(C)(C)CO)C(C)O (stereo partly drawn) [Compound 1285, (2R)-2,4-dihydroxy-N-[2-[(2-[[3-hydroxy-2-(1-hydroxyethyl)butanoyl]sulfanyl]ethyl)carbamoyl]ethyl]-3,3-dimethylbutanamide]
activation at 10 µM [1, 5]: ≥ 10%

CC(=O)SCCNC(=O)CCNC(=O)[C@H](O)C(C)(C)COC(=O)[C@H](C)N [Compound 502, (3R)-3-[(2-[[2-(acetylsulfanyl)ethyl]carbamoyl]ethyl)carbamoyl]-3-hydroxy-2,2-dimethylpropyl (2S)-2-aminopropanoate]
% decrease in IL-1α ([2]; 1 uM): ≥10% | activation at 10 µM [1, 6]: ≥ 10% | inhibition at 10 µM ([3]; Homo sapiens, 24 h, 10 uM, read-out: % decrease in Thrombomodulin): ≥ 10%

CC(C)(CO)[C@@H](O)C(=O)NCCC(=O)NCCSC(=O)CCCO [Compound 1304, (2R)-2,4-dihydroxy-N-[2-([2-[(4-hydroxybutanoyl)sulfanyl]ethyl]carbamoyl)ethyl]-3,3-dimethylbutanamide]
activation at 10 µM [1, 6]: ≥ 10%

CC(=O)SCCNC(=O)CCNC(=O)[C@H](O)C(C)(C)COC(=O)CN [Compound 560, (3R)-3-[(2-[[2-(acetylsulfanyl)ethyl]carbamoyl]ethyl)carbamoyl]-3-hydroxy-2,2-dimethylpropyl 2-aminoacetate]
inhibition at 10 µM ([4]; 10 uM): ≥ 30% | activation at 10 µM [1, 5]: ≥ 10%

CC(=O)OCC(C)(C)[C@@H](O)C(=O)NCCC(=O)NCCSC(=O)CC(=O)CCC(=O)O [Compound 140, 6-[(2-[3-[(2R)-4-(acetyloxy)-2-hydroxy-3,3-dimethylbutanamido]propanamido]ethyl)sulfanyl]-4,6-dioxohexanoic acid]
inhibition at 50 µM ([4]; 50 uM): ≥ 30% | activation at 10 µM [1, 5]: ≥ 10%

CC(=O)OCC(C)(C)[C@@H](OC(C)=O)C(=O)NCCC(=O)NCCSC(C)=O [Compound 1264, (1R)-3-(acetyloxy)-1-[(2-[[2-(acetylsulfanyl)ethyl]carbamoyl]ethyl)carbamoyl]-2,2-dimethylpropyl acetate]
% decrease in tPA ([2]; 10 uM): ≥10% | inhibition at 10 µM ([2]; Homo sapiens, Epithelial cell, 24 h, 10 uM, read-out: % decrease in MMP-1): ≥ 10% | activation at 10 µM [1, 5]: ≥ 10% | % increase in IL-6 ([3]; 1 uM, procedure of Example 832): ≥10%

CCC(=O)CC(=O)SCCNC(=O)CCNC(=O)[C@H](O)C(C)(C)CO [Compound 382, (2R)-2,4-dihydroxy-3,3-dimethyl-N-[2-([2-[(3-oxopentanoyl)sulfanyl]ethyl]carbamoyl)ethyl]butanamide]
activation at 10 µM [1, 5]: ≥ 10%
